Measured values taken from publication PMC10700596 (Nature Communications, 2023).
Like-named read-outs stand apart in the source and are kept apart here.

Assay: in vivo
Assay type: in vivo, mice
[1] = male, CD-1, mouse, plasma, ip, 10 mg/kg, mice, IP 10 mg/kg, plasma, mean of 3 animals, read-out: Plasma concentration C (mean)
[2] = male, CD-1, mouse, plasma, ip, 10 mg/kg, mice, IP 10 mg/kg, plasma, single animal, D=1, read-out: Final plasma concentration, individual sample
[3] = male, CD-1, mouse, plasma, iv, 10 mg/kg, mice, IV 10 mg/kg, plasma, single animals, read-out: Plasma concentration, Final (individual mouse)
[4] = male, CD-1, mouse, plasma, iv, 10 mg/kg, mice, IV 10 mg/kg, plasma, read-out: Plasma concentration C (mean)
[5] = male, CD-1, mouse, plasma, po, 30 mg/kg, mice, PO 30 mg/kg, plasma, read-out: Plasma concentration C (mean)
[6] = male, CD-1, mouse, plasma, po, 30 mg/kg, mice, PO 30 mg/kg, plasma, single animals, read-out: Plasma concentration, Final (individual mouse)

O=C([O-])C1CCC2(CC1)CC(Nc1ncnc3[nH]c4c(F)cccc4c13)C2.[Na+] (centres unmarked) [Compound 77, [Na+].[O-]C(=O)C1CCC2(CC(C2)NC=3N=CN=C4NC=5C(F)=CC=CC5C34)CC1]
concentrations in blood compared to CJ-42794 (10 mg/kg i.p., two to four hours after injection): higher concentrations in blood two to four hours after injection
concentration at 5 min [1]: 2420 ng/mL
concentration at 5 min [2]: 2380 ng/mL
concentration at 15 min [1]: 7250 ng/mL
concentration at 15 min [2]: 6880 ng/mL
concentration at 30 min [1]: 6710 ng/mL
concentration at 30 min [2]: 8130 ng/mL
concentration at 60 min [1]: 9910 ng/mL
concentration at 60 min [2]: 10900 ng/mL
concentration at 120 min [1]: 6380 ng/mL
concentration at 240 min [1]: 3590 ng/mL
concentration at 360 min [1]: 1980 ng/mL
concentration at 360 min [2]: 1660 ng/mL
concentration at 480 min [1]: 753 ng/mL
concentration at 480 min [2]: 889 ng/mL
concentration at 1440 min [1]: 17 ng/mL
concentration at 1440 min [2]: 18.9 ng/mL
Cmax (male, CD-1, mouse, plasma, ip, 10 mg/kg i.p., mice): 9910 ng/mL
AUC (male, CD-1, mouse, plasma, ip, 10 mg/kg i.p., mice, read-out: plasma AUC (converted)): 39500 ng·h/mL
concentration at 5 min [3]: 24100 ng/mL
concentration at 5 min [4]: 26200 ng/mL
concentration at 15 min [3]: 14400 ng/mL
concentration at 15 min [4]: 17000 ng/mL
concentration at 30 min [3]: 10900 ng/mL
concentration at 30 min [4]: 12700 ng/mL
concentration at 60 min [3]: 11000 ng/mL
concentration at 60 min [4]: 10500 ng/mL
concentration at 120 min [3]: 4760 ng/mL
concentration at 120 min [4]: 4090 ng/mL
concentration at 240 min [3]: 2370 ng/mL
concentration at 240 min [4]: 2080 ng/mL
concentration at 360 min [3]: 1260 ng/mL
concentration at 360 min [4]: 1730 ng/mL
concentration at 480 min [4]: 1240 ng/mL
concentration at 1440 min [4]: 43.2 ng/mL
AUC (male, CD-1, mouse, plasma, iv, 10 mg/kg i.v., mice, read-out: AUC (converted)): 46200 ng·h/mL
bioavailability (male, CD-1, mouse, plasma, oral, 30 mg/kg p.o. vs 10 mg/kg i.v., mice): 78%
concentration at 5 min [5]: 4340 ng/mL
concentration at 15 min [6]: 17600 ng/mL
concentration at 15 min [5]: 24200 ng/mL
concentration at 30 min [6]: 23000 ng/mL
